Data on 22 compounds can be found in patent US8247424B2, “Fredericamycin derivatives” (Zentopharm GmbH, priority 2002, dated 2012).

The IC70 is the concentration at which the effect reaches the 70% level. Low readings indicate an effect from little substance, high ones a need for much substance.

In brackets after ≈: the same amount, converted by molar mass.

The nature of this assay: Biological activity against 12 cancer cell lines, efficacy (IC70) averaged over all cell lines.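 Also: panel also covers renal lines RXF 944L and RXF 486L, uterine UXF 1138L, and prostate lines PRXF PC3M and PRXF 22RV1.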 The conditions noted are these: averaged over all 12 cancer cell lines, 5 test concentrations. The format is cell-based.
Experimental: LCL (H460, lung), MACL (MCF7, breast), LXFL (52L, lung), LXFA (629L, lung), MEXF (462NL, melanoma), MEXF (514L, melanoma), MAXF (401NL, breast), RXF (944L, renal), RXF (486L, renal), UXF (1138L, uterus), PRXF (PC3M, prostate), PRXF (22RV1).
`COC1=CC(=O)c2c(O)c3c(c(O)c2C1=O)C(=O)[C@]1(CCc2cc4cc(C=NOCc5cccc(F)c5)[nH]c(=O)c4c(O)c21)C3=O` [Example 218, (8S)-4′,9,9′-trihydroxy-6′-methoxy-1,1′,3′,5′,8′-pentaoxo-1,1′,2,3′,5′,6,7,8′-octahydrospiro[cyclopenta[g]isoquinoline-8,2′-cyclopenta[b]-naphthalene]-3-carbaldehyde O-(3-fluorobenzyl)oxime] registered an IC70 of 0.076 µg/mL (≈ 0.122 µM).
Compound `COC1=CC(=O)c2c(O)c3c(c(O)c2C1=O)C(=O)[C@]1(CCc2c1c(O)c1c(=O)[nH]c(C=NOCCCN4CCN(c5cccc(Cl)c5)CC4)cc1c2Br)C3=O` [Example 212, (8S)-5-bromo-4′,9,9′-trihydroxy-6′-methoxy-1,1′,3′,5′,8′-pentaoxo-1,1′,2,3′,5′,6,7,8′-octahydrospiro[cyclopenta[g]isoquinoline-8,2′-cyclopenta[b]-naphthalene]-3-carbaldehyde O-[3-(4-(3-chlorophenyl)-piperazine-1-yl)propyl]oxime] came in with an IC70 of 0.21 µg/mL (≈ 0.252 µM).
`COC1=CC(=O)c2c(O)c3c(c(O)c2C1=O)C(=O)[C@]1(CCc2c1c(O)c1c(=O)[nH]c(C=NOCCN4CCOCC4)cc1c2I)C3=O` [Example 235, (8S)-5-iodo-4′,9,9′-trihydroxy-6′-methoxy-1,1′,3′,5′,8′-pentaoxo-1,1′,2,3′,5′,6,7,8′-octahydrospiro[cyclopenta[g]isoquinoline-8,2′-cyclopenta[b]-naphthalene]-3-carbaldehyde O-[2-morpholine-4-yl-ethyl)oxime] displayed a concentration for an effect of 70% (IC70) of 0.081 µg/mL (≈ 0.107 µM).
In the case of `CON=Cc1cc2c(I)c3c(c(O)c2c(=O)[nH]1)[C@@]1(CC3)C(=O)c2c(O)c3c(c(O)c2C1=O)C(=O)C(OC)=CC3=O` [Example 236, (8S)-5-iodo-4′,9,9′-trihydroxy-6′-methoxy-1,1′,3′,5′,8′-pentaoxo-1,1′,2,3′,5′,6,7,8′-octahydrospiro[cyclopenta[g]isoquinoline-8,2′-cyclopenta[b]-naphthalene]-3-carbaldehyde O-methyloxime] it was 0.121 µg/mL (≈ 0.184 µM).
As for `COC1=CC(=O)c2c(O)c3c(c(O)c2C1=O)C(=O)[C@]1(CCc2c1c(O)c1c(=O)[nH]c(C=NO)cc1c2Br)C3=O` [Example 198, (8S)-5-bromo-4′,9,9′-trihydroxy-6′-methoxy-1,1′,3′,5′,8′-pentaoxo-1,1′,2,3′,5′,6,7,8′-octahydrospiro[cyclopenta[g]isoquinoline-8,2′-cyclopenta[b]-naphthalene]-3-carbaldehyde oxime], the concentration for an effect of 70% (IC70) worked out at 0.256 µg/mL (≈ 0.43 µM).
In the case of `COc1cccc2c1C(=O)c1c(O)c3c(c(O)c1C2=O)C[C@@](O)(C(=O)CO)C[C@@H]3O[C@H]1C[C@H](N)[C@H](O)[C@H](C)O1` [adriamycin], the IC70 was 0.021 µg/mL (≈ 0.0386 µM).
The figure for `C/C=C/C=C/c1cc2c(F)c3c(c(O)c2c(=O)[nH]1)[C@@]1(CC3)C(=O)c2c(O)c3c(c(O)c2C1=O)C(=O)C(OC)=CC3=O` [Example 23, (8S)-5-fluoro-4′,9,9′-trihydroxy-6′-methoxy-3-[(1E,3E)-penta-1,3-dienyl]-6,7-dihydrospiro[cyclopenta[g]isoquinoline-8,2′-cyclopenta[b]-naphthalene]-1,1′,3′,5′,8′(2H)-pentone] is 0.011 µg/mL (≈ 0.0197 µM); for `COC1=CC(=O)c2c(O)c3c(c(O)c2C1=O)C(=O)[C@]1(CCc2c1c(O)c1c(=O)[nH]c(C=NOCc4ccccc4)cc1c2I)C3=O` [Example 234, (8S)-5-iodo-4′,9,9′-trihydroxy-6′-methoxy-1,1′,3′,5′,8′-pentaoxo-1,1′,2,3′,5′,6,7,8′-octahydrospiro[cyclopenta[g]isoquinoline-8,2′-cyclopenta[b]-naphthalene]-3-carbaldehyde O-benzyloxime] it is 0.052 µg/mL (≈ 0.071 µM); for `COC1=CC(=O)c2c(O)c3c(c(O)c2C1=O)C(=O)[C@]1(CCc2cc4cc(C=NOCc5ccc(Cl)cc5)[nH]c(=O)c4c(O)c21)C3=O` [Example 217, (8S)-4′,9,9′-trihydroxy-6′-methoxy-1,1′,3′,5′,8′-pentaoxo-1,1′,2,3′,5′,6,7,8′-octahydrospiro[cyclopenta[g]isoquinoline-8,2′-cyclopenta[b]-naphthalene]-3-carbaldehyde O-(4-chlorobenzyl)oxime] it is 0.129 µg/mL (≈ 0.201 µM).
Consider `CON=Cc1cc2c(Br)c3c(c(O)c2c(=O)[nH]1)[C@@]1(CC3)C(=O)c2c(O)c3c(c(O)c2C1=O)C(=O)C(OC)=CC3=O` [Example 196, (8S)-5-bromo-4′,9,9′-trihydroxy-6′-methoxy-1,1′,3′,5′,8′-pentaoxo-1,1′,2,3′,5′,6,7,8′-octahydrospiro[cyclopenta[g]isoquinoline-8,2′-cyclopenta[b]-naphthalene]-3-carbaldehyde O-methyloxime], for which it took 0.095 µg/mL (≈ 0.156 µM) to reach the 70% level (IC70).
As for `COC1=CC(=O)c2c(O)c3c(c(O)c2C1=O)C(=O)[C@]1(CCc2c1c(O)c1c(=O)[nH]c(C=NOCc4ccc(Cl)cc4)cc1c2I)C3=O` [Example 232, (8S)-5-iodo-4′,9,9′-trihydroxy-6′-methoxy-1,1′,3′,5′,8′-pentaoxo-1,1′,2,3′,5′,6,7,8′-octahydrospiro[cyclopenta[g]isoquinoline-8,2′-cyclopenta[b]-naphthalene]-3-carbaldehyde O-(4-chlorobenzyl)oxime], the IC70 stood at 0.317 µg/mL (≈ 0.413 µM).
The compound `CCCCCCON=Cc1cc2c(Br)c3c(c(O)c2c(=O)[nH]1)[C@@]1(CC3)C(=O)c2c(O)c3c(c(O)c2C1=O)C(=O)C(OC)=CC3=O` [Example 225, (8S)-5-bromo-4′,9,9′-trihydroxy-6′-methoxy-1,1′,3′,5′,8′-pentaoxo-1,1′,2,3′,5′,6,7,8′-octahydrospiro[cyclopenta[g]isoquinoline-8,2′-cyclopenta[b]-naphthalene]-3-carbaldehyde O-n-hexyloxime] showed an IC70 of 0.111 µg/mL (≈ 0.163 µM).
Compound `COC1=CC(=O)c2c(O)c3c(c(O)c2C1=O)C(=O)[C@]1(CCc2c1c(O)c1c(=O)[nH]c(C=NOCc4cccc(Cl)c4)cc1c2Br)C3=O` [Example 203, (8S)-5-bromo-4′,9,9′-trihydroxy-6′-methoxy-1,1′,3′,5′,8′-pentaoxo-1,1′,2,3′,5′,6,7,8′-octahydrospiro[cyclopenta[g]isoquinoline-8,2′-cyclopenta[b]-naphthalene]-3-carbaldehyde O-(3-chlorobenzyl)oxime] returned an IC70 of 0.159 µg/mL (≈ 0.221 µM).
Compound `COC1=CC(=O)c2c(O)c3c(c(O)c2C1=O)C(=O)[C@]1(CCc2c1c(O)c1c(=O)[nH]c(C=NOCc4cccc(F)c4)cc1c2I)C3=O` [Example 233, (8S)-5-iodo-4′,9,9′-trihydroxy-6′-methoxy-1,1′,3′,5′,8′-pentaoxo-1,1′,2,3′,5′,6,7,8′-octahydrospiro[cyclopenta[g]isoquinoline-8,2′-cyclopenta[b]-naphthalene]-3-carbaldehyde O-(3-fluorobenzyl)oxime] returned an IC70 of 0.1 µg/mL (≈ 0.133 µM).
`COC1=CC(=O)c2c(O)c3c(c(O)c2C1=O)C(=O)[C@]1(CCc2c1c(O)c1c(=O)[nH]c(C=NOCc4ccccc4)cc1c2Br)C3=O` [Example 197, (8S)-5-bromo-4′,9,9′-trihydroxy-6′-methoxy-1,1′,3′,5′,8′-pentaoxo-1,1′,2,3′,5′,6,7,8′-octahydrospiro[cyclopenta[g]isoquinoline-8,2′-cyclopenta[b]-naphthalene]-3-carbaldehyde-O-benzyloxime] came in with a concentration for an effect of 70% (IC70) of 0.034 µg/mL (≈ 0.0496 µM).
As to `COC1=CC(=O)c2c(O)c3c(c(O)c2C1=O)C(=O)[C@]1(CCc2c1c(O)c1c(=O)[nH]c(C=NOC(C)C)cc1c2Br)C3=O` [Example 224, (8S)-5-bromo-4′,9,9′-trihydroxy-6′-methoxy-1,1′,3′,5′,8′-pentaoxo-1,1′,2,3′,5′,6,7,8′-octahydrospiro[cyclopenta[g]isoquinoline-8,2′-cyclopenta[b]-naphthalene]-3-carbaldehyde O-isopropyloxime], the 70% effect level (IC70) was put at 0.047 µg/mL (≈ 0.0737 µM).
`COC1=CC(=O)c2c(O)c3c(c(O)c2C1=O)C(=O)[C@]1(CCc2c1c(O)c1c(=O)[nH]c(C=NOCCN4CCOCC4)cc1c2Br)C3=O` [Example 192, (8S)-5-bromo-4′,9,9′-trihydroxy-6′-methoxy-1,1′,3′,5′,8′-pentaoxo-1,1′,2,3′,5′,6,7,8′-octahydrospiro[cyclopenta[g]isoquinoline-8,2′-cyclopenta[b]-naphthalene]-3-carbaldehyde O-[2-morpholine-4-yl-ethyl)oxime]: the concentration for an effect of 70% (IC70) was 0.075 µg/mL (≈ 0.106 µM).
Compound `CCCCCCON=Cc1cc2cc3c(c(O)c2c(=O)[nH]1)[C@@]1(CC3)C(=O)c2c(O)c3c(c(O)c2C1=O)C(=O)C(OC)=CC3=O` [Example 215, (8S)-4′,9,9′-trihydroxy-6′-methoxy-1,1′,3′,5′,8′-pentaoxo-1,1′,2,3′,5′,6,7,8′-octahydrospiro[cyclopenta[g]isoquinoline-8,2′-cyclopenta[b]-naphthalene]-3-carbaldehyde O-n-hexyloxime] came in with a 70% effect concentration (IC70) of 0.072 µg/mL (≈ 0.12 µM).
In turn, `CCCCCCON=Cc1cc2c(I)c3c(c(O)c2c(=O)[nH]1)[C@@]1(CC3)C(=O)c2c(O)c3c(c(O)c2C1=O)C(=O)C(OC)=CC3=O` [Example 230, (8S)-5-iodo-4′,9,9′-trihydroxy-6′-methoxy-1,1′,3′,5′,8′-pentaoxo-1,1′,2,3′,5′,6,7,8′-octahydrospiro[cyclopenta[g]isoquinoline-8,2′-cyclopenta[b]-naphthalene]-3-carbaldehyde O-n-hexyloxime] yielded an IC70 of 0.091 µg/mL (≈ 0.125 µM).
The compound `C/C=C/C=C/c1cc2cc3c(c(O)c2c(=O)[nH]1)C1(CC3)C(=O)c2c(O)c3c(c(O)c2C1=O)C(=O)C(OC)=CC3=O` (stereo not shown) [fredericamycin, fredericamycin A] came in with an IC70 of 0.279 µg/mL (≈ 0.517 µM).
`COC1=CC(=O)c2c(O)c3c(c(O)c2C1=O)C(=O)C1(CCc2cc4cc(C=NOCc5cccc(Cl)c5)[nH]c(=O)c4c(O)c21)C3=O` (stereo not shown) [Example 127, 4′,9,9′-Trihydroxy-6′-methoxy-1,1′,3′,5′,8′-pentaoxo-1,1′,2,3′,5′,6,7,8′-octahydrospiro[cyclopenta[g]isoquinoline-8,2′-cyclopenta[b]-naphthalene]-3-carbaldehyde O-(3-chlorobenzyl)oxime] registered an IC70 of 0.155 µg/mL (≈ 0.242 µM).
In the case of `COC1=CC(=O)c2c(O)c3c(c(O)c2C1=O)C(=O)C1(CCc2cc4cc(C=NOCc5ccccc5)[nH]c(=O)c4c(O)c21)C3=O` (stereo not shown) [Example 121, 4′,9,9′-Trihydroxy-6′-methoxy-1,1′,3′,5′,8′-pentaoxo-1,1′,2,3′,5′,6,7,8′-octahydrospiro[cyclopenta[g]isoquinoline-8,2′-cyclopenta[b]-naphthalene]-3-carbaldehyde O-benzyloxime] it was 0.202 µg/mL (≈ 0.333 µM).
